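All cell lines were grown in 96-well plates and treated with compound for 48 hours. GI50 marks 50% less growth.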 Calls of active or inactive are those of the source. No stated cut-off is given here; in the data, active = GI50 up to about 1.1 µM and inactive = higher.
Key:
Test in all cases: NCI anticancer screen, dose series, 48 h
SNB-19 = tested on: SNB-19
BT-549 = tested on: BT-549
OVCAR-3 = tested on: OVCAR-3
SK-MEL-28 = tested on: SK-MEL-28
UACC-62 = tested on: UACC-62
MDA-N = tested on: MDA-N
COLO 205 = tested on: COLO 205
SW-620 = tested on: SW-620
OVCAR-4 = tested on: OVCAR-4
DU-145 = tested on: DU-145
NCI/ADR-RES = tested on: NCI/ADR-RES
HT-29 = tested on: HT-29
EKVX = tested on: EKVX
HCC 2998 = tested on: HCC 2998
T47D = tested on: T47D

Measured: GI50

CC(=O)c1c(-c2cccc3ccccc23)c(C#N)c(=S)n(C2OC(CO)C(O)C(O)C2O)c1C (stereo not drawn)
inactive: SNB-19 59.7 µM | BT-549 > 100 µM | OVCAR-3 > 100 µM | SK-MEL-28 > 100 µM | UACC-62 64.7 µM | MDA-N 50.1 µM | COLO 205 > 100 µM | SW-620 > 100 µM | OVCAR-4 > 100 µM | DU-145 > 100 µM | NCI/ADR-RES 62.2 µM | HT-29 > 100 µM | EKVX 11.1 µM | HCC 2998 > 100 µM

CCOC(=O)c1nc2ccccc2nc1Oc1ccc(OC)cc1
inactive: SNB-19 > 100 µM | BT-549 > 100 µM | OVCAR-3 > 100 µM | SK-MEL-28 > 100 µM | UACC-62 > 100 µM | MDA-N > 100 µM | COLO 205 > 100 µM | SW-620 > 100 µM | T47D > 100 µM | OVCAR-4 > 100 µM | DU-145 > 100 µM | NCI/ADR-RES > 100 µM | HT-29 > 100 µM | EKVX > 100 µM

COC(=O)C1Cc2c(OC)ccc(OC)c2C(O)C1C(=O)OC (stereo not drawn)
inactive: SNB-19 > 100 µM | OVCAR-3 > 100 µM | SK-MEL-28 > 100 µM | UACC-62 > 100 µM | MDA-N > 100 µM | COLO 205 > 100 µM | SW-620 > 100 µM | T47D > 100 µM | OVCAR-4 > 100 µM | DU-145 > 100 µM | NCI/ADR-RES > 100 µM | HT-29 > 100 µM | EKVX > 100 µM

Cc1ccc2nc(SCC(=O)N/N=C3\C(=O)Nc4ccccc43)n(-c3ccccc3)c(=O)c2c1
inactive: SNB-19 17.5 µM | OVCAR-3 18.8 µM | SK-MEL-28 15.4 µM | UACC-62 16.9 µM | MDA-N 19 µM | COLO 205 13.4 µM | SW-620 23.6 µM | T47D 15.5 µM | OVCAR-4 13.2 µM | DU-145 13.4 µM | NCI/ADR-RES 13.3 µM | HT-29 19.4 µM | EKVX 15.6 µM | HCC 2998 14.8 µM

COc1cc2c3c(c4cc(OC)c(OC)cc4c2cc1OC)C(=O)C1CCC(=O)N1C3 (stereo not drawn)
inactive: BT-549 14.8 µM | OVCAR-3 20.6 µM | SK-MEL-28 19.8 µM | UACC-62 16.6 µM | COLO 205 24.5 µM | SW-620 15.5 µM | T47D 8.71 µM | OVCAR-4 12.8 µM | DU-145 11.5 µM | NCI/ADR-RES 94.4 µM | HCC 2998 21.7 µM

c1csc(C(NC2=NCCO2)C2CC2)c1 (stereo not drawn)
inactive: SNB-19 > 100 µM | UACC-62 > 100 µM | MDA-N > 100 µM | COLO 205 > 100 µM | SW-620 > 100 µM | T47D > 100 µM | OVCAR-4 > 100 µM | HT-29 83.9 µM | EKVX > 100 µM | HCC 2998 > 100 µM

Cc1cc(S(=O)(=O)[N-]/C(=N/S(=O)(=O)c2ccc(Cl)cc2)[n+]2ccc(N(C)C)cc2)c(S)cc1Cl
inactive: OVCAR-3 56.1 µM | SK-MEL-28 > 100 µM | MDA-N > 100 µM | SW-620 58.3 µM | T47D > 100 µM | OVCAR-4 55.5 µM | DU-145 > 100 µM | NCI/ADR-RES > 100 µM | HT-29 44.6 µM | EKVX > 100 µM | HCC 2998 > 100 µM

CC1=CC(=O)/C(=C/NC(=S)c2ccncc2)C(=O)O1
inactive: SNB-19 > 100 µM | BT-549 > 100 µM | OVCAR-3 > 100 µM | SK-MEL-28 > 100 µM | UACC-62 > 100 µM | MDA-N > 100 µM | COLO 205 > 100 µM | SW-620 > 100 µM | OVCAR-4 > 100 µM | DU-145 > 100 µM | NCI/ADR-RES > 100 µM | HT-29 > 100 µM | EKVX 46.7 µM | HCC 2998 > 100 µM

CCOC(=O)c1cc2c(ccc3cc(C(=O)OCC)[nH]c32)[nH]1
inactive: SNB-19 25.4 µM | BT-549 52.6 µM | OVCAR-3 87.1 µM | SK-MEL-28 8.36 µM | UACC-62 45.9 µM | MDA-N 51.5 µM | COLO 205 65.3 µM | SW-620 25.8 µM | T47D 38 µM | OVCAR-4 11.4 µM | DU-145 35.2 µM | EKVX > 100 µM | HCC 2998 99.8 µM

CN(Cc1cccc2ccccc12)Cc1cccc2ccccc12
inactive: SNB-19 52.7 µM | BT-549 56.4 µM | OVCAR-3 44.4 µM | SK-MEL-28 35.2 µM | UACC-62 67.5 µM | COLO 205 17.8 µM | SW-620 20.6 µM | T47D 21 µM | OVCAR-4 36.1 µM | DU-145 54 µM | NCI/ADR-RES 47.5 µM | HT-29 15.4 µM | EKVX 37.5 µM | HCC 2998 22.7 µM

— ChEMBL document CHEMBL1201862, “PubChem BioAssay data set” (2004)
